Assay results taken from the kinase profiling compilation of Christmann-Franck et al. (2016).

How the values were obtained:
Assay in all cases: KINOMEscan competition binding
Conditions in all cases: compound 10.0 µM
[1] = test system: FLT3 (human), P36888 [ITD]
[2] = test system: EIF2AK4 KD2 (human), Q9P2K8 [S808G]
[3] = test system: KIT (human), P10721 [V559D/T670I]
[4] = test system: KIT (human), P10721 [V559D]
[5] = test system: FLT3 (human), P36888 [K663Q]
[6] = test system: FLT3 (human), P36888 [N841I]
[7] = test system: ABL1 (human), P00519 [E255K]
[8] = test system: ABL1 (human), P00519 [T315I]
[9] = test system: ABL1 (human), P00519 [Q252H]
[10] = test system: PIK3CA (human), P42336 [E545K]
[11] = test system: KIT (human), P10721 [D816V]
[12] = test system: ABL1 (human), P00519 [M351T]
[13] = test system: EGFR (human), P00533 [G719S]
[14] = test system: EGFR (human), P00533 [L861Q]
[15] = test system: EGFR (human), P00533 [746-750 del]
[16] = test system: EGFR (human), P00533 [P753S; 747-752 del]
[17] = test system: PIK3CA (human), P42336 [H1047Y]
[18] = test system: PIK3CA (human), P42336 [E545A]
[19] = test system: PIK3CA (human), P42336 [Q546K]
[20] = test system: PIK3CA (human), P42336 [C420R]
Sequence of PIK3CA (human), P42336 [C420R] (P42336 whole entry C420R, looked up): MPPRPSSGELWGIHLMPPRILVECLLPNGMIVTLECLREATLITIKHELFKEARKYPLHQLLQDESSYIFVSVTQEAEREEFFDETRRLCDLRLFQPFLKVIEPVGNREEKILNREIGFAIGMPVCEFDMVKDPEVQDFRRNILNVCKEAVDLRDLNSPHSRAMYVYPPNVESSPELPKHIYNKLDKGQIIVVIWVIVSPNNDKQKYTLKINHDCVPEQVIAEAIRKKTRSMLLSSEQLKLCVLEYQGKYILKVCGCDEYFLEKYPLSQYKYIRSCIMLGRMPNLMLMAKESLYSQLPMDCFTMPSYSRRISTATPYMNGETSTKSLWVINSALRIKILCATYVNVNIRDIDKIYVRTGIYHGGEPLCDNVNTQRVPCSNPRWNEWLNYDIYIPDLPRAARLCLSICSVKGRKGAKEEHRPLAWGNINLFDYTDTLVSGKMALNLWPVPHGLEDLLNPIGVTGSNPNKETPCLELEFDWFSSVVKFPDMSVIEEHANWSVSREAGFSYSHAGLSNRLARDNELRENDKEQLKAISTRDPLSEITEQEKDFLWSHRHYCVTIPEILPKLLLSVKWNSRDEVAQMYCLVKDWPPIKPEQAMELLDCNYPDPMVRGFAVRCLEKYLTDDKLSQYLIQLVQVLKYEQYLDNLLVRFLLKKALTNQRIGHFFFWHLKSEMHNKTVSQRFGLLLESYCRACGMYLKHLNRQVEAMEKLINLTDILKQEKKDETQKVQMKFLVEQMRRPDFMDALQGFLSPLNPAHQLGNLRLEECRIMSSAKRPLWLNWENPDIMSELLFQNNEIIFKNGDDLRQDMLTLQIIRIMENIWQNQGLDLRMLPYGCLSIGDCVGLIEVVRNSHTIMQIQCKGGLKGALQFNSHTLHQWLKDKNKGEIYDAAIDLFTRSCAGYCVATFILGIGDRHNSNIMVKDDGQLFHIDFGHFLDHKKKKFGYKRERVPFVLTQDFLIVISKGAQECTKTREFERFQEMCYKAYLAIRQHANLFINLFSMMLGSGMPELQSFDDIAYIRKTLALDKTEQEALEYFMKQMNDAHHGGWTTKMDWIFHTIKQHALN

Sequence of PIK3CA (human), P42336 [Q546K] (P42336 whole entry Q546K, looked up): as the sequence (P42336 whole entry C420R, looked up) above, with R420C, Q546K counted along it
Sequence of KIT (human), P10721 [V559D/T670I] (P10721 whole entry V559D/T670I, looked up): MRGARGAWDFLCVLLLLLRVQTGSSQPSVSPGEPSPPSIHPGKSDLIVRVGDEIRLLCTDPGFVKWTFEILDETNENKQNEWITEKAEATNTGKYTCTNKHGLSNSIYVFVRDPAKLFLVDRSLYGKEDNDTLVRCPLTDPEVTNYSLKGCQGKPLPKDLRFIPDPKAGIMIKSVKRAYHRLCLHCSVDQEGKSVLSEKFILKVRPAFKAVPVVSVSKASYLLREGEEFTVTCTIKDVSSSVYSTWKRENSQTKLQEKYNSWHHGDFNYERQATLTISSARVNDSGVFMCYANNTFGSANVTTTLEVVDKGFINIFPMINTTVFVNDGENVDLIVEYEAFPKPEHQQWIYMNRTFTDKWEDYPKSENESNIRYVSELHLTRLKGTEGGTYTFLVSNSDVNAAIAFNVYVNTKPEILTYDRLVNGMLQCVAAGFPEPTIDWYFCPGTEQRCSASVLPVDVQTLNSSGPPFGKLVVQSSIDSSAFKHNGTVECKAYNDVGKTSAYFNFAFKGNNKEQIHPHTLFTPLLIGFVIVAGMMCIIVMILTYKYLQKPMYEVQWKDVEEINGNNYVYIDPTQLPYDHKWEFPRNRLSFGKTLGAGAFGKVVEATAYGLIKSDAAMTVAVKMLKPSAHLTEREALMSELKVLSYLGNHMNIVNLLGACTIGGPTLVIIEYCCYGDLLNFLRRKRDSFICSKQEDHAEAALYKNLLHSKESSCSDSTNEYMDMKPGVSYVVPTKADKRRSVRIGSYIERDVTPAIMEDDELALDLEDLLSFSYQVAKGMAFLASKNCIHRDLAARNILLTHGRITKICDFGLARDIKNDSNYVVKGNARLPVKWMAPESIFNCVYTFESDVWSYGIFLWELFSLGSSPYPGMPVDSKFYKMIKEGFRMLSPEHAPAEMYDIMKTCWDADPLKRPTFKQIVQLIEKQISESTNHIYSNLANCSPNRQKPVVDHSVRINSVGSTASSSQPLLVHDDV
Sequence of KIT (human), P10721 [V559D] (P10721 whole entry V559D, looked up): as the sequence (P10721 whole entry V559D/T670I, looked up) above, with I670T counted along it
Sequence of PIK3CA (human), P42336 [E545A] (P42336 whole entry E545A, looked up): as the sequence (P42336 whole entry C420R, looked up) above, with R420C, E545A counted along it
Sequence of PIK3CA (human), P42336 [H1047Y] (P42336 whole entry H1047Y, looked up): as the sequence (P42336 whole entry C420R, looked up) above, with R420C, H1047Y counted along it
Sequence of KIT (human), P10721 [D816V] (P10721 whole entry D816V, looked up): as the sequence (P10721 whole entry V559D/T670I, looked up) above, with D559V, I670T, D816V counted along it
Sequence of PIK3CA (human), P42336 [E545K] (P42336 whole entry E545K, looked up): as the sequence (P42336 whole entry C420R, looked up) above, with R420C, E545K counted along it
Sequence of EIF2AK4 KD2 (human), Q9P2K8 [S808G] (Q9P2K8 whole entry S808G, looked up): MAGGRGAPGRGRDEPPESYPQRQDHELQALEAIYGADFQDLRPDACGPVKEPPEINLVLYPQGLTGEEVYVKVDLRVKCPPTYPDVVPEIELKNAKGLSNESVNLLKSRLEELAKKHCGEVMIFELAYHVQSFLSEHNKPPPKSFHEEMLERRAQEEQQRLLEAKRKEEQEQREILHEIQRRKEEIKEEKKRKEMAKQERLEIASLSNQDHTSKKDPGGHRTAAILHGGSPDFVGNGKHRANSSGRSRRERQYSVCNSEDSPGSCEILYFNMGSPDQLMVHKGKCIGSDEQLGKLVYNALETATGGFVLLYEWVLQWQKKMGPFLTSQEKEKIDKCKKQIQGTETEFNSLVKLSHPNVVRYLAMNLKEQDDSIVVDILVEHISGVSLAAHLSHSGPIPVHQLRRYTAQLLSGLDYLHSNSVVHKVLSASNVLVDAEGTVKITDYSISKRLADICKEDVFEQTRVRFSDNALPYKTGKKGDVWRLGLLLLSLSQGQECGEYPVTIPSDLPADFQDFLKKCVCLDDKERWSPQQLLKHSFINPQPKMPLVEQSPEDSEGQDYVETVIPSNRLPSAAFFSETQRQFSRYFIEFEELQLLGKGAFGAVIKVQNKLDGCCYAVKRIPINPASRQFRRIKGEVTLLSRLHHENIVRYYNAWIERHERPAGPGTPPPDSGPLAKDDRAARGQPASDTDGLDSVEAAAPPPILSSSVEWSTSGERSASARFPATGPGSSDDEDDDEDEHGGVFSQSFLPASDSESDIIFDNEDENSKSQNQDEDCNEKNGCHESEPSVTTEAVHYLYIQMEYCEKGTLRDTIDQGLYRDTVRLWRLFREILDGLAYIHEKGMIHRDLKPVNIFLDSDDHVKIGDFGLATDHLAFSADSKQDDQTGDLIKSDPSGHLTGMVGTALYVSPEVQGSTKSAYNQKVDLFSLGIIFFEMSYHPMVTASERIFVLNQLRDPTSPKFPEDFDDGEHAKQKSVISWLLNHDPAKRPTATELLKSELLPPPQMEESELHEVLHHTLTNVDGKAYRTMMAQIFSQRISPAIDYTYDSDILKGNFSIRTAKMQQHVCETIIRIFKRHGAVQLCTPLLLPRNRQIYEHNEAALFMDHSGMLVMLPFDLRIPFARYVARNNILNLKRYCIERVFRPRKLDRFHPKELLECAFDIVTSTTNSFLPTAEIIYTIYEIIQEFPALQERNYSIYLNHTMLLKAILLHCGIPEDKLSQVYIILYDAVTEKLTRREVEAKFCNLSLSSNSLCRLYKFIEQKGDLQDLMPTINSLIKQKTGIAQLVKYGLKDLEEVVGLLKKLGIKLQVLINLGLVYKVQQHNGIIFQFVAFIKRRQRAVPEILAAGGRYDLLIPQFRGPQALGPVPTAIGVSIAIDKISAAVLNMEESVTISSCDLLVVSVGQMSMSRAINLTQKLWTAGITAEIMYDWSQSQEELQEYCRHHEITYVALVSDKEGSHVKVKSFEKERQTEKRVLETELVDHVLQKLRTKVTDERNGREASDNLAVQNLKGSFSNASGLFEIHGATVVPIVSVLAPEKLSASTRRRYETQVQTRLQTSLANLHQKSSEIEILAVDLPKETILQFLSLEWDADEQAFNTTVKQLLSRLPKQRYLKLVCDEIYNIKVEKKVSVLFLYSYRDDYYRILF

SMILES	kinase still bound, per cent of control [1]	kinase still bound, per cent of control [2]	kinase still bound, per cent of control [3]	kinase still bound, per cent of control [4]	kinase still bound, per cent of control [5]	kinase still bound, per cent of control [6]	kinase still bound, per cent of control [7]	kinase still bound, per cent of control [8]	kinase still bound, per cent of control [9]	kinase still bound, per cent of control [10]	kinase still bound, per cent of control [11]	kinase still bound, per cent of control [12]	kinase still bound, per cent of control [13]	kinase still bound, per cent of control [14]	kinase still bound, per cent of control [15]	kinase still bound, per cent of control [16]	kinase still bound, per cent of control [17]	kinase still bound, per cent of control [18]	kinase still bound, per cent of control [19]	kinase still bound, per cent of control [20]
Cc1n[nH]c2ccc(-c3cncc(OC[C@@H](N)Cc4c[nH]c5ccccc45)c3)cc12	0.1%	100%	100%	100%	3.8%	0.1%	100%	100%	100%	100%	1.1%	100%	–	–	–	–	–	–	–	–
CNC(=O)c1ccc(Nc2cc(Nc3ccccc3S(=O)(=O)C(C)C)c3cc[nH]c3n2)nc1	0.25%	100%	22%	18%	2.6%	0.35%	20%	0%	11%	4.7%	4.5%	7.9%	100%	100%	100%	100%	–	–	–	–
COc1cc(C)c(Sc2cnc(NC(=O)c3ccc(CNC(C)C(C)C)cc3)s2)cc1C(=O)N1CCN(C(C)=O)CC1 (stereo unspecified)	100%	100%	100%	100%	100%	16%	100%	19%	100%	100%	100%	100%	100%	100%	100%	100%	–	–	–	–
Cc1cn(-c2cc(C(=O)Nc3ccc(C)c(NC(=O)c4ccno4)c3)cc(C(F)(F)F)c2)cn1	100%	100%	100%	0.15%	100%	100%	18%	100%	13%	100%	27%	11%	100%	100%	100%	100%	100%	100%	100%	100%
COc1ccc(N(C(=O)Oc2cc(C(=O)Nc3cccc(C(F)(F)F)c3)ccc2C)c2ccnc(Nc3ccc(N4CCN(C)CC4)cc3)n2)c(OC)c1	100%	100%	3.8%	0.5%	–	29%	7.2%	0.45%	1.8%	100%	0.75%	1.4%	18%	1%	6.1%	2.5%	–	–	–	–
CCN(CC)CCCCNc1ncc2cc(-c3cc(OC)cc(OC)c3)c(NC(=O)NC(C)(C)C)nc2n1	100%	100%	100%	100%	–	100%	100%	100%	100%	100%	100%	100%	–	–	–	–	–	–	–	–
COc1cc(N2CCN(C)CC2)ccc1Nc1ncc2c(n1)N(C)c1ccccc1C(=O)N2C	100%	100%	100%	100%	100%	100%	100%	100%	100%	100%	100%	100%	100%	100%	100%	100%	100%	100%	100%	100%
C=CC(=O)Nc1ccc(CN(C(=O)Nc2c(Cl)c(OC)cc(OC)c2Cl)c2cc(Nc3ccc(N4CCN(C)CC4)cc3)ncn2)cc1	100%	1.5%	29%	0.1%	21%	8.4%	100%	6.4%	14%	100%	7.2%	16%	0.15%	0.1%	0.6%	0.45%	–	–	–	–
CS(=O)(=O)N1CCN(Cc2cc3nc(-c4cccc5[nH]ncc45)nc(N4CCOCC4)c3s2)CC1	100%	100%	100%	100%	100%	100%	100%	100%	100%	0.3%	100%	100%	100%	100%	100%	100%	14%	0.35%	0.35%	–
COc1cc(N2CCC(C(N)=O)CC2)ccc1Nc1nc(N)c(Cl)c(Nc2ccccc2S(=O)(=O)C(C)C)n1	20%	100%	100%	100%	100%	13%	100%	100%	100%	100%	24%	100%	21%	0.3%	0%	2.9%	–	–	–	–
